We go through one compound from patent US12653788B2, “Pharmaceutical composition of a pyrazole compound dispersed in a polymer matrix” (Intervet Inc., priority 2019, dated 2026).

One data set has as its system cIL-31 induced pruritus. The conditions noted are these: with respect to placebo, similar magnitude to oclacitinib (Apoquel); cited from earlier work.
A short description of data set [1]: Solubility of the compound (water, volatile solvents). Type of data set: physicochemical. On the procedure: (§1) The poor water solubility results in poor oral bioavailability in dogs, often below 50%. The log P of the compound of Formula (I) is calculated to be 1.25 (Chem Draw and Insight for Excel). To increase solubilization and promote bioavailability, Applicants have dosed the compound in the amorphous state as part of an amorphous solid dispersion (ASD). […] Therefore, the ASD was manufactured by co-precipitation or cPAD (co-precipitated amorphous dispersion). In this process, the compound and a polymer were dissolved into a solvent. The compound-polymer solution was then rapidly precipitated in an anti-solvent under high shear in a rotor-stator homogenizer. and the compound-polymer amorphous solid dispersion was formed.

Data set [2] is described as follows: In vitro anti-nucleating polymer screen in simulated gastric fluid (PION UV probe). The conditions noted are these: only simulated gastric fluid (SGF) pH 1.8, no polymer; 2 hours, 272 nm. Type of data set: physicochemical. On the procedure: FIG. 3—Several anti-nucleating polymers were assessed for ability to maintain the compound of Formula (I) in an in vitro screen.
In an attempt to improve the bioavailability of the compound of Formula (I) in animals administered in the fed state, anti-nucleating agents were added to the pharmaceutical composition to decrease the potential for crystallization of the compound. Several anti-nucleation polymers were assessed for ability to maintain the compound of Formula (I) in an in vitro screen. 0.5% solution of each anti-nucleating polymer was prepared in simulated gastric fluid, pH 1.8. 75 uL of 10 mg/mL API in DMSO was added into 5 mL of the 0.5% polymer solution and monitored by PION UV probe for 2 hours at 272 nm. […] When the other polymers were used, the concentration of the compound of Formula (I) was initially maintained but finally was reduced before the 2 hour test was completed.

Data set [3] in a line: Oral bioavailability of the compound in dogs. The conditions noted are these: dog, in vivo. On the procedure:
as §1

In the case of `COc1cc(Nc2nn([C@H]3COCC[C@@H]3C#N)cc2C(N)=O)cc(F)n1` [compound of Formula (I), 1-[(3R,4S)-4-cyanotetrahydropyran-3-yl]-3-[(2-fluoro-6-methoxy-4-pyridyl)amino]pyrazole-4-carboxamide], the suppression of pruritus entry in the data set on cIL-31 induced pruritus is “significantly suppressed pruritus”. In addition, the “solubility in volatile solvents” value in data set [1] (isopropanol, acetone, dichloromethane) is recorded as “low solubility”. In addition, in data set [1] (water), the water solubility entry was “poorly water soluble”. Moreover, the “concentration of the compound of Formula (I) in control” value in data set [2] is reported as “dropped almost immediately”. Further, the bioavailability (in general, dose-corrected exposure relative to a reference, in per cent) in data set [3] is less than 50%.
